pIC50: −log10 of the molar value. Entries after “also recorded” stand apart in the source; their conditions may differ. Like-named read-outs stand apart in the source and are kept apart here.
Experiments:
[1] = test system: GSTP1; assay: Western blot to detect GSTP1 protein in LNCaP cells; type: cell-based, human; details: LNCaP cells exposed 24 hrs
Procedure: Western blot to detect GSTP1 protein (FIG. 1): […] The cells were harvested, washed and total cellular proteins were extracted as described previously (Wang, […], et al. […] Cancer Res 61(20): 7544-51, 2001). Fifty μg cellular extracts were separated on a SDS-PAGE, electro-transferred to nitrocellulose filters, and immunoblotted initially with antibodies against GSTP1. The same membranes were stripped and re-probed with β-actin for loading control. The result was recorded by ECL films.

[2] = test system: transcription factor Sp1; assay: Sp1-luc luciferase activity assay in transfected LNCaP AD cells; type: cell-based, human; details: 24 hrs
Source text: The Sp1-luc and mtSp1-luc contain three tandem repeats of consensus Sp1 sites driving the luciferase gene and its mutant. […] Effectene transfection reagent and luciferase assay kit were acquired from Qiagen (Valencia, Calif., USA) and Promega (Madison, Wis., USA). Reagents for protein electrophoresis were purchased from Bio-Rad company (USA). The other chemicals were purchased from Sigma (St. Louis, Mo.) otherwise as indicated. […] (Gao, M., Ossowski, L., and Ferrari, A. C. Activation of Rb and decline in androgen receptor protein precede retinoic acid-induced apoptosis in androgen-dependent LNCaP cells and their androgen-independent derivative. J Cell Physiol, 179: 336-346, 1999). The AD and AI cells were maintained in RPMI-1640 with 10% fetal bovine serum (FBS) and charcoal stripped fetal bovine serum, penicillin-streptomycin for incubation at 5% CO2 and 37° C. respectively. […] After incubation for 24 hrs at 5% CO2 and 37° C., the cells were transfected with 1 μg/dish of SP1-luciferase gene (Sp1-luc), or its mutant mtSp1-luc using Effectene (Qiagen, Valencia, Calif.) as the transfection reagent. […] The cells were collected, washed, lysed, and the lysates were used for luciferase activity assay using Promega luciferase assay system.

[3] = biological target: T1, Sp1 (Homo sapiens, UniProt P08047); assay: Mobility gel shift assay (EMSA) of Sp1-DNA binding; type: cell-based; details: AD cells exposed 24 hrs
T1 construct: endogenous in cells; host or cells: LNCaP AD cells, nuclear extract
Procedure: EMSA was performed according to modern technology. […] The extraction of nuclear proteins was performed as described previously (Wang, L. G., Liu, X. M., Kreis, W., and Budman, D. R. Down-regulation of prostate-specific antigen expression by finasteride through inhibition of complex formation between androgen receptor and steroid receptor-binding consensus in the promoter of the PSA gene in LNCaP cells. Cancer Res, 57: 714-719, 1997). Five μg of nuclear proteins was reacted for 30 minutes at room temperature with the [^32P]-labeled Sp1 oligonucleotide or their corresponding mutants oligonucleotide probe in binding buffer containing […] dIdC to increase the specificity of the reaction. The reaction mixtures were then subjected to electrophoresis in 8% native polyacrylamide gel(PAGE). The binding complexes were visualized by exposing the dried gel to X-ray film.

[4] = test system: LNCaP AD; assay: MTT growth inhibition, hormone dependent LNCaP AD; type: cell-based; details: Homo sapiens, LNCaP, 168 h, read-out: IC50, growth inhibition
Source text: The human prostate cancer cell line LNCaP AD was purchased from the American Type Culture Collection. LNCaP AI cell line was derived from LNCaP cells using a method described previously by Gao et al. (Gao, M., Ossowski, L., and Ferrari, A. C. Activation of Rb and decline in androgen receptor protein precede retinoic acid-induced apoptosis in androgen-dependent LNCaP cells and their androgen-independent derivative. J Cell Physiol, 179: 336-346, 1999). The AD and AI cells were maintained in RPMI-1640 with 10% fetal bovine serum (FBS) and charcoal stripped fetal bovine serum, penicillin-streptomycin for incubation at 5% CO2 and 37° C. respectively.
MTT: MTT and SRB method were used to determine the effects of various isothiocyanates on cell growth as described previously (Kreis, Budman et al, 1997). Briefly, human prostate cancer cell line LNCaP grown exponentially were aliquoted into 96-well plates at a density of 2500 cells/200 μl per well. Twenty-four hrs after the incubation, the cells were exposed for seven days to serial dilutions of indicated isothiocyanate or paclitaxel. […] The absorbance was measured at wavelength 540 nm. The percent of cell survival (T/C%) were calculated based on the results of test groups to that of the control group. […]

[5] = test system: xenograft B16 mouse tumor; details: 15 days
Procedure: The B16 mouse melanoma cells at exponential growth phase were suspended in PBS. […] Adjusted the suspension to a cell concentration of approximately 1×10^7/ml. 0.2 ml of the suspension were transplanted subcutaneously into right axillary subcutis for passaging.
Under sterile condition the xenograft B16 mouse tumor in mice was stripped from axillary subcutis. After cutting by scissors, the tumor with saline (1:3) was ground in a glass homogenizer. Monocell suspension was made with saline. […] Then adjusted the suspension to a cell density of approximately 1×10^7/ml with saline. 0.2 ml were transplanted subcutaneously into right axillary subcutis of each mouse. After transplanting, randomly divided the mouse into 5 groups, 12 each.
Tumors were taken out, sizes and weights were measured, and the percent of inhibitions were calculated.

T1 sequence (P08047 whole entry): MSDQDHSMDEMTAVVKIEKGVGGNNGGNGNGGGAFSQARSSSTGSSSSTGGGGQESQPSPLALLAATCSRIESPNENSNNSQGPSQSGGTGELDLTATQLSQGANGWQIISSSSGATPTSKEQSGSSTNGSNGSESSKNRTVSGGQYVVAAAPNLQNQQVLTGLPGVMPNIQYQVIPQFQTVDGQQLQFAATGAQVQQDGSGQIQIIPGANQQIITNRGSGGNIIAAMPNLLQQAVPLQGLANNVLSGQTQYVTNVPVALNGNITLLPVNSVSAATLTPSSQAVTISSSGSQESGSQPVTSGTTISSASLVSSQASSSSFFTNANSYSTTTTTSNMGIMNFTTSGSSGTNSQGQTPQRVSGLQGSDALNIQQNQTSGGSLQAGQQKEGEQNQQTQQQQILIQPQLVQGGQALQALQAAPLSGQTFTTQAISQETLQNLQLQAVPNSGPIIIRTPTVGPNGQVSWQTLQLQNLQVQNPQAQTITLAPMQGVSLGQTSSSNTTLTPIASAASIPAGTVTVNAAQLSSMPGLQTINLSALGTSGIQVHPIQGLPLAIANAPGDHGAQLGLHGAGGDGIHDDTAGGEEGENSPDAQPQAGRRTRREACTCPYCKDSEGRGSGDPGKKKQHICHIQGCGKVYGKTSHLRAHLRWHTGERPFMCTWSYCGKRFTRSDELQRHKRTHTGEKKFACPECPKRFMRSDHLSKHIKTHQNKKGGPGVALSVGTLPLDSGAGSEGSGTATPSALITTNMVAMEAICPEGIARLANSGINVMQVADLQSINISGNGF

Structure (SMILES): S=C=NCCc1ccccc1 [PEITC, phenethyl isothiocyanate]
- expression of GSTP1 (Western blot) [1]: significantly restored; also recorded: effectively induce
- luciferase activity of Sp1-luc transfected gene [2]: significantly decreased
- binding activity to Sp1 specific oligonucleotide of nuclear proteins (EMSA) [3]: significantly reduced
- pIC50 [4]: 6.22
- Changes in Body Weight ([5]; PEITC 70 mg/kg/d gavage (Example 13-16)): 9.78 ± 4.28 g
- Average of Tumor Weight ([5]; PEITC 70 mg/kg/d gavage): 1.23 ± 0.68 g
- Inhibition ([5]; PEITC 70 mg/kg/d gavage): 39.23%
- Changes in Body Weight ([5]; PEITC 120 mg/kg/d gavage (Example 13-16)): 6.34 ± 3.42 g
- Average of Tumor Weight ([5]; PEITC 120 mg/kg/d gavage): 0.91 ± 0.23**∇ g
- Inhibition ([5]; PEITC 120 mg/kg/d gavage): 58.54%

Reference: patent US8410170B2, “Use of isothiocyanates compounds in treating prostatic diseases and skin cancer” (Wuxi JC Pharmaceutical Technology Co., Ltd., priority 2005, dated 2013)
